Experimental data taken from patent publication US4916135A, “N-heteroaryl-4-quinolinamines” (priority 1989, dated 1990).
Structures can show the parent of a compound that is named as a salt. Where two headings read alike, the source gives them in different places.

What was measured:
[1] = test system: 2-phenyl-1,4-benzoquinone-induced writhing; experiment: 2-phenyl-1,4-benzoquinone-induced writhing (PQW) test in mice (analgesic activity); type: in vivo; conditions: for inhibition in vivo at 20 mg/kg: Mus musculus, sc, read-out: PQW Percent inhibition
Description: Compounds I of the present invention are useful as analgesic agents due to their ability to alleviate pain in mammals. […] Exptl. Biol. Med., 95, 729 (1957)].
The results of some of the compounds of this invention (expressed in terms of percent inhibition at 20 mg/kg, s.c.) are shown in Table 1 along with that of a prior art compound.

[2] = test system: Scopolamine Induced Memory Deficit; experiment: scopolamine-induced Dark Avoidance Assay; type: in vivo; conditions: s.c., mice, 24 hours
Description: In this assay mice are tested for their ability to remember an unpleasant stimulus for a period of 24 hours. A mouse is placed in a chamber that contains a dark compartment; a strong incandescent light drives it to the dark compartment, where an electric shock is administered through metal plates on the floor. The animal is removed from the testing apparatus and tested again, 24 hours later, for the ability to remember the electric shock.
If scopolamine, an anticholinergic that is known to cause memory impairment, is administered before an animal's initial exposure to the test chamber, the animal re-enters the dark compartment shortly after being placed in the test chamber 24 hours later. This effect of scopolamine is blocked by an active test compound, resulting in a greater interval before re-entry into the dark compartment.
The results for an active compound are expressed as the percent of a group of animals in which the effect of scopolamine is blocked, as manifested by an increased interval between being placed in the test chamber and re-entering the dark compartment.
Test results of scopolamine-induced Dark Avoidance Assay for representative compounds of this invention are presented in Table 2 along with that of a reference compound.

CCCN(c1ccnc2cc(Cl)ccc12)n1cccc1C=O [1-[(7-Chloro-4-quinolinyl)propylamino]-1H-pyrrole-2-carboxaldehyde]
inhibition in vivo at 20 mg/kg ([1]; at 20 mg/kg, s.c., mice): 31%

CCCN(c1ccnc2cc(Cl)ccc12)n1ccc(C=O)c1 [1-[(7-Chloro-4-quinolinyl)propylamino]-1H-pyrrole-3-carboxaldehyde]
inhibition in vivo at 20 mg/kg ([1]; at 20 mg/kg, s.c., mice): 42%

C#CCn1ccc(=Nn2cccc2)c2ccc(Cl)cc21 [7-Chloro-1-(2-propynyl)-N-(1H-pyrrol-1-yl)-4(1H)-quinolinimine]
inhibition in vivo at 20 mg/kg ([1]; at 20 mg/kg, s.c., mice): 48%

CCN(CC)Cc1cccn1Nc1ccnc2cc(Cl)ccc12 [7-Chloro-N-(2-diethylaminomethyl-1H-pyrrol-1-yl)-4-quinolinamine]
inhibition in vivo at 20 mg/kg ([1]; at 20 mg/kg, s.c., mice): 55%

Clc1ccc2c(Nn3cccc3CN3CCCCC3)ccnc2c1 [7-Chloro-N-[2-(1-piperidinyl)methyl-1H-pyrrol-1-yl]-4-quinolinamine]
inhibition in vivo at 20 mg/kg ([1]; at 20 mg/kg, s.c., mice): 35%

CCCN(c1ccnc2cc(Cl)ccc12)n1cccc1.O=C(O)/C=C\C(=O)O [7-Chloro-N-propyl-N-(1H-pyrrol-1-yl)-4-quinolinamine maleate]
inhibition in vivo at 20 mg/kg ([1]; at 20 mg/kg, s.c., mice): 42% | % of Animals with Scopolamine Induced Memory Deficit Reversal ([2]; 0.31 mg/kg of body weight): 20%

c1ccc2c(c1)ccn2Nc1ccnc2ccccc12 [N-(1H-Indol-1-yl)-4-quinolinamine maleate]
inhibition in vivo at 20 mg/kg ([1]; at 20 mg/kg, s.c., mice): 32%

Cl.c1ccc2c(Nn3cccc3)c3c(nc2c1)CCCC3 [N-(1H-Pyrrol-1-yl)-1,2,3,4-tetrahydro-9-acridinamine hydrochloride]
inhibition in vivo at 20 mg/kg [1]: 43% | % of Animals with Scopolamine Induced Memory Deficit Reversal ([2]; 0.63 mg/kg of body weight): 20%

Cl.c1ccc2c(Nn3cccc3)ccnc2c1 [N-(1H-Pyrrol-1-yl)-4-quinolinamine hydrochloride]
inhibition in vivo at 20 mg/kg ([1]; at 20 mg/kg, s.c., mice): 26% | % of Animals with Scopolamine Induced Memory Deficit Reversal ([2]; 0.16 mg/kg of body weight): 47%

Cl.FC(F)(F)c1ccc2c(Nn3cccc3)ccnc2c1 [N-(1H-Pyrrol-1-yl)-7-trifluoromethyl-4-quinolinamine hydrochloride]
inhibition in vivo at 20 mg/kg ([1]; at 20 mg/kg, s.c., mice): 48% | % of Animals with Scopolamine Induced Memory Deficit Reversal ([2]; 1.25 mg/kg of body weight): 40%

Cc1cn(Nc2ccnc3ccccc23)c2ccccc12 [N-(3-Methyl-1H-indol-1-yl)-4-quinolinamine hydrochloride]
inhibition in vivo at 20 mg/kg ([1]; at 20 mg/kg, s.c., mice): 44%

CCCN(c1c2c(nc3ccccc13)CCCC2)n1cc(C)c2ccccc21 [N-(3-Methyl-1H-indol-1-yl)-N-propyl-1,2,3,4-tetrahydro-9-acridinamine]
inhibition in vivo at 20 mg/kg ([1]; at 20 mg/kg, s.c., mice): 42%

c1ccc2c(Nn3c4ccccc4c4ccccc43)ccnc2c1 [N-(4-Quinolinyl)-9H-carbazol-9-amine hydrochloride]
inhibition in vivo at 20 mg/kg ([1]; at 20 mg/kg, s.c., mice): 30%

CCCN(c1ccnc2ccccc12)n1cccc1 [N-Propyl-N-(1H-pyrrol-1-yl)-4-quinolinamine]
inhibition in vivo at 20 mg/kg ([1]; at 20 mg/kg, s.c., mice): 33% | % of Animals with Scopolamine Induced Memory Deficit Reversal ([2]; 0.16 mg/kg of body weight): 33%

CCCN(c1ccnc2ccccc12)n1c2ccccc2c2ccccc21 [N-Propyl-N-(4-quinolinyl)-9H-carbazol-9-amine]
inhibition in vivo at 20 mg/kg ([1]; at 20 mg/kg, s.c., mice): 55%

CNC(=O)Oc1ccc2c(c1)[C@]1(C)CCN(C)[C@@H]1N2C [Physostigmine, reference compound]
% of Animals with Scopolamine Induced Memory Deficit Reversal ([2]; 0.31 mg/kg of body weight): 20%

Propoxyphene [reference compound]
PQW Percent inhibition ([1]; at 3.9 mg/kg, s.c., mice, reference compound): 50%
